Each structure is given as a SMILES string. Entries after “also recorded” stand apart in the source; their conditions may differ. Some results are limits rather than exact numbers.

The subject of assay [1] is Burkitt lymphoma cells (Daudi). The assay is described as follows: CCK-8 cell proliferation/viability assay, Daudi. As to conditions: for cell viability inhibited by GSK126, on fatty acid supplementation: with GSK126, CCK-8. Type of assay: cell-based. The procedure: (§1) FIG. 1: Hematological tumors are more sensitive to GSK126 than solid tumors. (A) Proliferation of B16F10, Huh7 and SMMC7721 cells in GSK126 (10-20 μM) treatment group was monitored by Incucyte S3, with 6 replicates per group; (B) viability of Daudi and THP-1 cells after GSK126 (200 nM-24 μM) treatment for 24 h and 48 h was measured by CCK-8 assay, with 5 replicates per group; (C) western blot analysis (WB) of B16F10 cells 48 h after the treatment without or with GSK126 (6 μM, 12 μM), with H3 used as an internal reference for histone. 5 to 6 replicates were established for each group, with *P<0.05, **P<0.01, and ***P<0.001, and ns for no statistical difference.
(§2) FIG. 5: Effect of GSK126 on the metabolic profile of Daudi cells. (A) Orthogonal partial least squares discriminant analysis (OPLS-DA) score plot based on metabolic analysis (6 replicates per group). C: control, G: GSK126 treatment. (B) Score plot for validating the OPLS-DA model (R2Y=0.973; Q2Y=0.931). (C) The number of metabolites of each category in metabolomics. […] (E) Viability of Daudi cells after palmitic acid treatment was analyzed by CCK-8 kit (3 replicates per group). 3-6 replicates per group, *P<0.05, **P<0.01.
(§3) FIG. 6: The combination with an SCD1 inhibitor enhances the inhibitory effect of GSK126 on cancer cells. (A) Differential metabolites between DMSO and GSK126-treated Daudi cells. […] Metabolite categories are shown in different colors. […] (C) The mRNA levels of lipid metabolism genes in GSK126-treated Daudi cells were detected by RT-qPCR (3 replicates per group). (D) Viability of GSK126 and palmitinic acid-treated Daudi cells was analyzed by CCK-8 assay kit (5 replicates per group). (E) Viability of GSK126 and stearic acid-treated Daudi cells was analyzed by CCK-8 assay kit (5 replicates per group). (F) Proliferation curves of B16F10 and SMMC7721 cells treated with GSK126 and MF-438 were monitored by IncuCyte S3 (5 replicates per group). (G) CCK-8 assay kit detects the viability of B16F10 and SMMC7721 cells treated with GSK126 and MF-438. CI is calculated by CompuSyn software. CI<0.9 indicates synergism and CI>1.1 indicates antagonism. (H) Schematic diagram of mouse tumor-bearing experiment. (I-J) Tumor weight (I) and tumor growth curve (J) of the mice loaded with B16F10 cells. The tumor volume was measured with a vernier caliper every 2 days. Tumor volume=(length*width*width)/2. (K) Representative tumor pictures of all experimental groups. 3-8 replicates per group, *P<0.05, **P<0.01, ***P<0.001.

Assay [2] concerns ACLY, FASN, and SCD in SMMC7721. The experiment in a line: RT-qPCR and WB of fatty acid synthesis genes, SMMC7721. Type of assay: cell-based. An excerpt:
(§4) FIG. 4: Lipid accumulation in mice after GSK126 treatment. (A) H & E and oil red O staining of the liver tissue sections of the tumor-bearing mice in the control group and the GSK126 treatment group, in which the statistical results of negative or positive staining area were shown on the right (3 replicates per group); (B) TG level in the serum of the tumor-bearing mice in the control group and the GSK126 treatment group (5 replicates per group); (C-D) mRNA (C) and protein (D) levels of the genes related to fatty acid anabolism in the GSK126-treated HCC cells, as detected by RT-qPCR and WB (3 replicates per group). 3 to 5 replicates were established for each group, with *P<0.05, **P<0.01.
(§5) C57BL/6 mice of 6-8 weeks old were subcutaneously implanted with B16F10 cells and treated with GSK126 again. […] Therefore, the expression of the fatty acid synthesis-related genes in GSK126-treated hepatocellular carcinoma (HCC) cell lines SMMC7721 and Huh7 was further detected.

Assay [3] relates to ELOVL2, SCD1, and FASN in Daudi cells. The experiment in a line: RT-qPCR of lipid metabolism genes in Daudi cells. The format is cell-based. As to conditions: mRNA. On the procedure:
as §3, with “***P<0.001. […]” for “***P<0.001.”

Assay [4] concerns melanoma B16F10 cells. The experiment in a line: Metabolite (fatty acid) levels in GSK126-treated B16F10 cells. The format is cell-based. Particulars: GSK126 group. An excerpt:
FIG. 3: GSK126 results in significant elevated levels of 6 fatty acids in melanoma B16F10 cells.
Among the metabolites with significant changes, the levels of many fatty acids increased in the GSK126 group. There are five polyunsaturated fatty acids, including α-linolenic acid, DHA, EPA, linoleic acid, and γ-linolenic acid) and one monounsaturated fatty acid, i.e., 10Z-heptadienoic acid (FIG. 3).

For the next assay, the system named is Daudi cells. The assay is described as follows: UPLC-MS/MS metabolomics of Daudi cells. Type of assay: cell-based. As to conditions: GSK126 6 μM vs control. On the procedure:
as §2, §3
In order to verify that the lipid metabolism of cancer cells is the key factor affecting the sensitivity of the EZH2 inhibitor, UPLC-MS/MS system was used to analyze the metabolomics of the Daudi cells treated with GSK126 at a concentration of 6 μM (close to the IC50 value). The differences in the metabolome between the cells in the control group and the GSK126 treatment group were obvious by OPLS-DA analysis (sections A and B of FIG. 5). There were 71 metabolites with significant changes and VIP values greater than 1.0.

For the next assay, the system named is B16F10 cells. The experiment in a line: Apoptosis by flow cytometry and Annexin V live-cell imaging, B16F10. Type of assay: cell-based. As to conditions: B16F10, 10 μM. The procedure:
(§6) FIG. 2: Melanoma cells B16F10 are less sensitive to GSK126. (A) Cell scratch assay, showing the effect of GSK126 (10 μM) treatment on the migration capability of B16F10 cells, with 3 replicates per group; (B-C) the effect of GSK126 (10, 13, and 15 μM) on the apoptosis rate of B16F10 cells, as examined by flow cytometry […] and Annexin V staining assay. 3 replicates were established for each group, with *P<0.05, **P<0.01, and ***P<0.001, and ns for no statistical difference.
(§7) Next, to further validate the effect of GSK126 at 10 μM on melanoma cells B16F10, scratch assay was conducted. […] In addition, to assess the anti-survival effect of GSK126, B16F10 cells were treated by GSK126 at different concentrations for different durations, and the apoptosis rate of the cells was analyzed by flow cytometry (section B of FIG. 2) and live-cell fluorescence imaging (section C of FIG. 2).

For assay [5], the system named is hematological tumor cells THP-1. The experiment in a line: CCK-8 cell proliferation/viability assay, THP-1. Particulars: 10 μM, 24 h and 48 h. Type of assay: cell-based. On the procedure: as §1
Assay [6] concerns hematologic cancer cell lines. As to conditions: most hematologic cancer cell lines; many studies; read-out: IC50 (half-maximal inhibitory concentration); cited from earlier work.
Assay [7] deals with H3K27me3 level in B16F10 cells. The experiment in a line: Western blot of H3K27me3 in B16F10 cells. The format is cell-based. Particulars: 6 μM, 48 h, WB. The procedure: as §1
In assay [8] the test system is ACLY, FASN, and SCD in Huh7. The assay is described as follows: RT-qPCR and WB of fatty acid synthesis genes, Huh7. The format is cell-based.
From the text: as §4, §5

In the next assay the test system is hepatoma SMMC-7721 cells. The experiment in a line: IncuCyte S3 live-cell proliferation (confluence), SMMC-7721. Type of assay: cell-based. The procedure:
as §1
(§8) In order to accurately assess the responsiveness of solid tumor cells to EZH2 inhibitors, the effects of GSK126 at different concentrations on the proliferation of melanoma B16F10 cells and hepatoma Huh7 and SMMC-7721 cells were initially detected by IncuCyte S3×Live-Cell Analysis System.
(§9) • (1) Cells in the logarithmic growth phase were digested with 0.25% trypsin and the digestion was terminated by the addition of serum-containing medium. It was then centrifuged at 200 g for 5 min; • (2) The single cell suspension at the corresponding concentration was prepared by a microscopic counting method, and then added into a 96-well culture plate, so that the volume of the culture medium in each well was 150 μL (about 5000 cells). […]

The subject of assay [9] is melanoma B16F10 cells. The experiment in a line: IncuCyte S3 live-cell proliferation (confluence), B16F10. Type of assay: cell-based. On the procedure: as §1, §8, §9
A further assay relates to hepatoma Huh7 cells. The experiment in a line: IncuCyte S3 live-cell proliferation (confluence), Huh7. The format is cell-based. The procedure:
as §1, §8, §9

A further assay deals with melanoma cells B16F10. The experiment in a line: Cell scratch (migration) assay, B16F10. Type of assay: cell-based. Particulars: B16F10, 10 μM, 36 h of culture, vs control group. On the procedure:
as §6, §7

The mark [10] stands for this setting: GSK126 at different concentrations (10-20 μM).

`CCCCCCCCCCCCCCCC(=O)O` [palmitic acid]: in assay [1] (Daudi cells, CCK-8), the “cell proliferation (viability) on fatty acid addition” value is recorded as “moderately promoted”. Further, the “cell viability inhibited by GSK126, on fatty acid supplementation” value in [1] (Daudi cells) is “recovered the cell viability inhibited by GSK126 to varying degrees”.
As to `CC[C@H](C)n1cc(C)c2c(C(=O)NCc3c(C)cc(C)[nH]c3=O)cc(-c3ccc(N4CCNCC4)nc3)cc21` [GSK126], the “mRNA and protein levels of ACLY, FASN, and SCD” value in assay [2] and in assay [8] was “significantly elevated” in each case. Also, the “expression of ELOVL2, SCD1, and FASN” value in assay [3] is reported as “did not upregulate”. Further, the “levels of fatty acids (five polyunsaturated, one monounsaturated)” value with melanoma B16F10 cells [4] is “increased”. Moreover, the down-regulated metabolites in the assay on Daudi cells came to 6. In addition, in the assay with Daudi cells, the “fatty acids (incl. ricinoleic acid, DPA n-6)” value is given as “four fatty acids decreased”. Also, in the assay with Daudi cells, the “metabolites with significant changes and VIP values greater than 1.0” value was 71. The up-regulated metabolites in the assay on Daudi cells is recorded as 65. Also, in the assay on B16F10 cells, the induction of apoptosis entry is on record as “limited capability to induce apoptosis”. The “proliferation of THP-1 cells” value in assay [5] is “significantly inhibited”. The IC50 in [6] is below 1 µM; in assay [1] (Daudi cells), around 6 µM. Also, the H3K27me3 level entry in assay [7] is given as “significantly down-regulated”. In assay [1] (1 μM, CCK-8), the “sensitivity of Daudi cells” value was “very sensitive”. Further, in assay [1] (10 μM, 24 h and 48 h, CCK-8), the “proliferation of Daudi cells” value is reported as “significantly inhibited”. Besides, the cell proliferation result in the assay with hepatoma SMMC-7721 cells (GSK126 10 μM) was “less effective”; in the assay with hepatoma SMMC-7721 cells (setting [10]) it was “inhibited cell proliferation in a dose-dependent manner”; in the assay with melanoma B16F10 cells [9] (GSK126 10 μM), “less effective; also recorded: could not be effectively inhibited”; with melanoma B16F10 cells [9] (setting [10]), “inhibited cell proliferation in a dose-dependent manner”; in the assay on hepatoma Huh7 cells (GSK126 10 μM), “less effective”; in the assay with hepatoma Huh7 cells (setting [10]), “inhibited cell proliferation in a dose-dependent manner”. In addition, in the assay with melanoma cells B16F10, the cell migration result is given as “did not effectively inhibit cell migration”.
Turning to `CCCCCCCCCCCCCCCCCC(=O)O` [stearic acid], the “cell proliferation (viability) on fatty acid addition” value in [1] (Daudi cells, CCK-8) is “moderately promoted”. For the same molecule, the “cell viability inhibited by GSK126, on fatty acid supplementation” value in assay [1] (Daudi cells) was “recovered the cell viability inhibited by GSK126 to varying degrees”.

These data come from patent US20240325385A1, “ANTI-TUMOR PHARMACEUTICAL COMPOSITION COMPRISING EZH2 INHIBITOR AND SCD1 INHIBITOR AND USE THEREOF” (PEKING UNIVERSITY THIRD HOSPITAL, priority 2021, published 2024).
